In PubChem BioAssay (NCI):
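Briefly, cells in 96-well plates were exposed to five compound concentrations for 48 h, and endpoints were estimated by linear interpolation. The concentration for 50% growth inhibition is given as GI50. TGI is the concentration that stops growth completely.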

Tests used:
Experiment in all cases: NCI tumour cell line growth inhibition, 48 h
SK-MEL-5 melanoma = test system: SK-MEL-5 melanoma
NCI-H226 lung = test system: NCI-H226 lung
U251 CNS = test system: U251 CNS
UACC-257 melanoma = test system: UACC-257 melanoma
OVCAR-5 ovarian = test system: OVCAR-5 ovarian
MCF7 breast = test system: MCF7 breast
786-0 renal = test system: 786-0 renal
HT29 colon = test system: HT29 colon
MDA-MB-231 breast = test system: MDA-MB-231 breast
CCRF-CEM leukemia = test system: CCRF-CEM leukemia

Structure (SMILES)	GI50 (SK-MEL-5 melanoma) [µM]	TGI (SK-MEL-5 melanoma) [µM]	GI50 (NCI-H226 lung) [µM]	TGI (NCI-H226 lung) [µM]	GI50 (U251 CNS) [µM]	TGI (U251 CNS) [µM]	GI50 (UACC-257 melanoma) [µM]	TGI (UACC-257 melanoma) [µM]	GI50 (OVCAR-5 ovarian) [µM]	TGI (OVCAR-5 ovarian) [µM]	GI50 (MCF7 breast) [µM]	TGI (MCF7 breast) [µM]	GI50 (786-0 renal) [µM]	TGI (786-0 renal) [µM]	GI50 (HT29 colon) [µM]	TGI (HT29 colon) [µM]	GI50 (MDA-MB-231 breast) [µM]	TGI (MDA-MB-231 breast) [µM]	TGI (CCRF-CEM leukemia) [µM]	GI50 (CCRF-CEM leukemia) [µM]
CC(CN)[C@@H]1CC[C@]2(CO)CC[C@]3(C)[C@H](CC[C@@H]4[C@@]5(C)CCC(N)C(C)(C)[C@@H]5CC[C@]43C)[C@@H]12 (some centres not stated)	1.67	3.08	1.95	4.04	1.91	3.31	1.85	3.28	1.85	3.58	1.57	3.52	1.58	3.38	1.57	3.03	1.5	3.05	–	–
O=C(Cc1ccccc1)NS(=O)(=O)c1ccccc1	–	–	–	> 100	–	> 100	–	> 100	–	> 100	–	–	–	> 100	–	> 100	–	–	> 100	–
CCOC(=O)C(C(=O)OCC)=c1sc(=C(C(=O)OCC)C(=O)OCC)s1	–	> 100	–	–	–	–	–	> 100	–	> 100	–	–	–	> 100	–	> 100	–	–	> 100	–
Nc1nc(=Nc2ccccc2)ss1	–	> 100	–	> 100	–	> 100	–	> 100	–	> 100	–	–	–	> 100	–	> 100	–	–	–	–
CC1=Nc2ccccc2C12C(c1ccccc1)C(c1ccccc1)C(=O)N1c3ccccc3CC12 (configuration not stated)	–	> 100	–	> 100	–	> 100	–	> 100	–	> 100	–	–	–	> 100	–	> 100	–	–	–	–
C=C[C@H]1C=Cc2c(OC)cccc2[C@@H]1COP1(=S)NC(C)C(c2ccccc2)O1 (some centres not stated)	–	> 100	–	> 100	–	> 100	–	–	–	–	–	–	–	> 100	–	> 100	–	–	> 100	–
COC(=O)Cc1cc(=O)n2c([nH]c3ccccc32)c1C#N	–	> 100	–	> 100	–	> 100	–	> 100	–	> 100	–	–	–	> 100	–	> 100	–	–	–	–
Cn1sc2ccccc2c1=S	–	25.3	–	53.4	–	13.5	–	21.3	–	37.4	–	7.36	–	13.6	–	23.3	–	–	14.8	–
COC(=O)[C@@]12C=CC(=O)[C@H]3C[C@@H](C(C(C)C)C1)[C@]32OC (some centres not stated)	–	> 100	–	–	–	> 100	–	> 100	–	> 100	–	–	–	> 100	–	> 100	–	–	> 100	–
Cc1ccc(N2C(=O)C(Cl)=C(Cl)C2=O)cc1	–	> 100	–	> 100	–	> 100	–	63.9	–	35.9	–	–	–	31	–	33.3	–	–	23.4	–
CCCCCCCCCCCCC(CCCCCCCCCCCC)OP(=O)(O)O	–	> 100	–	> 100	–	> 100	–	> 100	–	> 100	–	–	–	> 100	–	> 100	–	–	> 100	–
CCOCCOC[C@H]1CCCN(c2ccnc3sc(C(N)=O)c(N)c23)C1	4.05	36.9	> 100	> 100	> 100	> 100	12.4	> 100	> 100	> 100	25.1	> 100	> 100	> 100	> 100	> 100	58.7	> 100	–	–
Cc1c(-c2nnc(-c3cc(Cl)c(Cl)cc3Cl)o2)nnn1-c1ccnc2c(C(F)(F)F)cccc12	17.3	32.5	28.7	91.7	19.3	37.4	–	–	32.1	94.2	20.3	45.1	33.8	> 100	22.3	42.2	20.2	53.2	–	–
C=C1C(=O)O[C@H]2[C@H]1CC/C(COC(=O)NCc1cc(OC)cc(OC)c1)=C\CC[C@@]1(C)O[C@@H]21	3.48	12.2	2.02	5.49	3.16	11.1	1.54	3.7	1.82	4.45	–	–	1.7	3.45	1.2	2.96	1.61	4.07	4.36	0.476
O=C(O)c1ccccc1Nc1ccc2nnc(-c3ccncc3)n2n1	3.92	14.8	–	–	13.3	28	10.6	33.6	17.4	79.3	2.85	24.6	4.64	19.7	5.66	24.2	5.27	24.2	> 100	4.28
COc1ccc(C(c2cc3c(cc2O)OCO3)N2CCOCC2)cc1OC (configuration not stated)	–	26.3	–	24.6	–	21.4	–	34.1	–	21.5	–	> 100	–	23.1	–	26	–	15.8	–	–
Cc1ccc(NC(=O)c2cc3ccccc3cc2O)c(C)c1.Cc1ccc(NC(=O)c2cc3ccccc3cc2[O-])c(C)c1.[Ni+2]	2.57	10.2	3.49	8.37	2.91	8.62	2.94	7.85	4.25	17.9	3.45	–	3.77	14.6	3.14	10.9	2.33	5.27	–	–
Nc1ccccc1C#Cc1ccccc1C#Cc1cnccn1	4.6	18	17.2	32.8	17.7	32	35.3	79.9	18.6	43.5	–	–	15.3	28.7	24.8	53	14.3	29.3	> 100	33.2
CCOC(=O)NC1CC2CCC1(OC)C=C2C (configuration not stated)	–	> 100	–	> 100	–	> 100	–	> 100	–	> 100	–	–	–	> 100	–	> 100	–	–	> 100	–
